Assay results taken from patent publication US11723907B2, “Anti-aging compounds” (THE CLEVELAND CLINIC FOUNDATION, priority 2017, dated 2023).

Tests used:
[1] = tested on: fibroblasts; test: Gene expression analysis of fibroblasts (RNAseq); type: cell-based; conditions: RNAseq exome
[2] = tested on: bone marrow cells from aplastic anemia patients; test: Colony assay, aplastic anemia bone marrow; type: cell-based, human; conditions: tissue culture derived from aplastic anemia patients
Text: While performing a multidrug screen for the agents that could simultaneously decrease senescence and overcome proliferative block in pre-senescent mesenchymal cells, the inventors identified two promising lead compounds violuric acid (VA) and 1-naphthoquinone-2-monoxime (N2N1). […] In term of hematopoietic stem cells (HSC) these agents prolonged the availability of HSC in methylcellulose (replicative/serial re-plating) experiments, long-term culture initiating cell assays (LTC-IC) and increased the performance of HSC in a competitive repopulation assay, the CD45.1/2 model. Furthermore, the inventors observed colonies formation in methylcellulose colony assay, after application of these drugs to the mononucleocyte fraction of bone marrow isolated from the patients diagnosed with severe AA. […] These compounds belong to a family of redox catalysts with unique chemical structure that shares a combined electrophile-nucleophile potential, a feature that renders these molecules effective anti-aging treatment in various biological model systems.
FIGS. 2A-2G provide graphs and images showing N2N1 and VA support HSC/progenitors populations under pressure of differentiation and tissue culture stress in vitro and in vivo. General schema of CFU (A) and LTC-IC assays (B). […] Representative result of three NBM is shown. (D) The morphology of cells at the end of 1st part of LTC-IC assay is shown. […]

[3] = tested on: NHDF; test: SAβG staining of NHDF at late passages; type: cell-based, human
Text: (§1) FIGS. 1A-1I provide graphs and images showing a new high throughput method for simultaneous detection of senescence associated SAβG activity and ATP in culture of normal pre-aged cells identified two potent anti-aging scaffolds. (A). General schema of HTS. (B). […] (C). Structures and corresponding tautameric forms of lead compounds. (D) Evaluation of possible genotoxic effect of experimental drugs in modified Ames test. 4-Nitroquinoline 1-oxide (4NQO) was used as a positive control. […] The general schema of RLS measurement in different cell types. (F) VA and N2N1 considerably extend RLS of normal human fibroblasts (NHDF) and stromal cells isolated from human normal bone marrow. (G). […] (I). Upper panel: Morphological appearance of NHDF at late passages with or without treatment. Lower panel: Cells were also fixed in para-formaldehyde and stained to detect SAβG.
The inventors developed a new high-throughput screening (HTS) method for identification of anti-aging drugs (FIG. 1). The novel method was specifically designed for simultaneous detection of β-galactosidase activity in cell lysate followed by ATP detection by standard luciferase based assay. […] Altogether, the procedure allowed a simultaneous quantifiable detection of senescence associated β-galactosidase (SAβG) activity and evaluation of ATP level as a sign of improved proliferative capacity or cytotoxicity. […]

[4] = tested on: hematopoietic colony assays; test: Hematologic toxicity in hematopoietic colony assays; type: cell-based
Text: They have first applied them in a battery of tissue culture assays measuring i) exhaustion kinetics of HSC and ii) hematologic toxicity. […] The inventors then focused our studies on HSC performance measured in CFU assay and in LTC-IC (FIG. 2), the best in vitro surrogate assay for the quantification and functional assessment of HSCs.

[5] = tested on: HSC/progenitors from normal bone marrows; test: CFU and LTC-IC assays, normal bone marrow; type: cell-based, human; conditions: for colonies formation: tissue culture derived from normal bone marrows; for total number of cells at end of 1st part of LTC-IC assay: versus untreated samples
Text: FIGS. 2A-2G provide graphs and images showing N2N1 and VA support HSC/progenitors populations under pressure of differentiation and tissue culture stress in vitro and in vivo. General schema of CFU (A) and LTC-IC assays (B). […] Representative result of three NBM is shown. (D) The morphology of cells at the end of 1st part of LTC-IC assay is shown. The total number of cells at this step of experiment was always larger in the samples treated with experimental drugs. (E) Treatment of mice with N2N1 promotes maintenance of normal HSC in vivo. Competitive repopulation assay performed on CD45.2 mice treated with N2N1. Summary of four animals, three hematopoietic tissues. […] Representative result of three patients is shown.
While these compounds may have many applications, the inventors have focused on potential usage of these agents to improve the function of HSC in BMF. They have first applied them in a battery of tissue culture assays measuring i) exhaustion kinetics of HSC and ii) hematologic toxicity. […] The inventors then focused our studies on HSC performance measured in CFU assay and in LTC-IC (FIG. 2), the best in vitro surrogate assay for the quantification and functional assessment of HSCs. The potential positive impact of identified pro-survival catalysts on viability and propagation of HSC was evaluated in methylcellulose cultures, classic CFU assay, long-term culture colony-initiating (LTC-IC) cell assays (FIGS. 2A, B and C) and competitive repopulation assay based on CD45.1/2 mouse model (FIG. 2E).
As a starting point for clinical application of identified redox catalysts, the inventors tested them on their ability to stimulate hematopoiesis in normal and damaged bone marrow cells, isolated from the patients with severe AA (FIGS. 2C and F). Very promising data was obtained, confirming the original idea that these small molecules can support propagation of both normal HSC and stem cells presented in damaged or disease bone marrow.

[6] = Modified Ames test for genotoxic effect; conditions: 4NQO positive control
Text: as §1

[7] = tested on: fibroblasts derived from Werner syndrome patient; test: RLS of Werner syndrome fibroblasts; type: cell-based, human
Text: as §1

[8] = tested on: fibroblasts derived from a patient diagnosed with Bloom syndrome; test: RLS of Bloom syndrome fibroblasts; type: cell-based, human
Text: as §1

Row | SMILES | expression of stem cell markers [1] | colonies formation [2] | number of SAβG positive cells [3] | LD50 [4] | colonies formation [5] | total number of cells at end of 1st part of LTC-IC assay [5] | genotoxic effect [6] | response of RLS to treatment [7] | response of RLS to treatment [8]
1 | O=C1/C(=N/O)C=Cc2ccccc21 [N2N1, 1-naphthoquinone-2-monoxime] | revealed the expression of some stem cell markers | promote colonies formation | substantially decreased | 15 µM | promote colonies formation | always larger | did not show any detrimental effect on DNA integrity | did not respond | responded positively
2 | O=C1NC(=O)C(=NO)C(=O)N1 [VA, 2,4,5,6(1H,3H)-pyrimidine-tetrone 5-oxime] | revealed the expression of some stem cell markers | promote colonies formation | substantially decreased | 5000 µM | promote colonies formation | always larger | did not show any detrimental effect on DNA integrity | did not respond | responded positively
